Reference: ChEMBL document CHEMBL2034875, “Bifunctionalized amphilectane diterpenes from the sponge Stylissa cf. massa” (J Nat Prod, 2012)
Calls of active or inactive are those of the source. The calls are words filed in the database; no cut-off is given here.

Key:
Plasmodium falciparum [1] = experiment: Antimalarial activity against Plasmodium falciparum K1 infected in human erythrocytes assessed as inhibition of [3H]hypoxanthine incorporation incubated for 24 hrs prior to hypoxanthine addition measured after 18 hrs by liquid scintillation counting; format: functional, organism-based
[2] = Cytotoxicity against human MCF7 cells assessed as growth inhibition at 25 ug/mL by SRB assay; format: cell-based; details: read-out: GI
Plasmodium falciparum [3] = experiment: Antimalarial activity against Plasmodium falciparum K1 infected in human erythrocytes assessed as inhibition of [3H]hypoxanthine incorporation at 10 ug/mL incubated for 24 hrs prior to hypoxanthine addition measured after 18 hrs by liquid scintillation counting; format: functional, organism-based

Row | SMILES | IC50 (Plasmodium falciparum [1]) | inhibition at 25 ug/mL [2] | Activity (Plasmodium falciparum [3])
1 | C[C@H]1[C@@H](O)O[C@@H]2O[C@@]3(C)CC[C@H]4[C@H](C)CC[C@@H]1[C@@]24OO3 [ARTENIMOL] | 0.0038 µM |  | 
2 | C=C1CC[C@@]2(N=C=O)[C@H]3[C@H](CC[C@@H]2C)[C@@H](C)C[C@@H](CC(C)(C)NC=O)[C@H]13 | 8.85 µM | < 50% | 
3 | C=C(C)C[C@@H]1C[C@H](C)[C@H]2CC[C@](C)(NC=O)[C@H]3CCC(=C)[C@@H]1[C@H]23 |  | < 50% | inactive
4 | C=C1CC[C@@]2(N=C=S)[C@H]3[C@H](CC[C@@H]2C)[C@@H](C)C[C@@H](CC(C)(C)NC=O)[C@H]13 | 8.07 µM | < 50% | 
5 | [C-]#[N+][C@@]12CCC(=C)[C@H]3[C@H](CC(C)(C)NC=O)C[C@H](C)[C@@H](CC[C@@H]1C)[C@@H]32 | 0.52 µM | < 50% | 
